Tested on: clathrin-dependent pathway or macro-pinocytosis pathway
Test: Effect of endocytosis pathway inhibitors on BTNP accumulation in response to TTFields
Format: cell-based
Conditions: specific inhibitors of clathrin-dependent or macro-pinocytosis pathway

SMILES	effect on accumulation of BTNPs in cytoplasm in response to TTFields
N=C(N)NC(=O)c1nc(Cl)c(N)nc1N [amiloride]	did not modulate
CN(C)CCCN1c2ccccc2Sc2ccc(Cl)cc21 [chlorpromazine]	did not modulate
C=C1[C@@H](C)[C@H]2[C@H](Cc3ccccc3)NC(=O)[C@]23[C@H](OC(C)=O)/C=C/[C@@](C)(O)C(=O)[C@@H](C)C/C=C/[C@H]3[C@@H]1O [cytochalasin D]	did not modulate

Source: patent US12458709B2, “Compositions and methods for imaging a cell” (NOVOCURE GMBH, priority 2019, dated 2025)
